Measurements reported in patent US9249102B2 (priority 2012, dated 2016).
Where two headings read alike, the source gives them in different places.

Legend:
[1] = Method G: permeability in the Caco-2/TC7 in vitro model; conditions: human, Caco-2, pH 6.5
Haemonchus contortus = test: Method A: Haemonchus contortus L1 larvae, microtitre plate screen; conditions: 96 h, read-out: motility inhibition
[2] = system: microfilaria of Dirofilaria immitis; test: Method F: microfilaria of Dirofilaria immitis, survival at 24 hours
Cooperia oncophora = test: Method C: Cooperia oncophora L1 larvae in vitro; conditions: 96 h, read-out: inhibition of motility
[3] = survival of microfilaria at 24 hours

## O=C(CO[C@H]1CC[C@H](Nc2ccc([N+](=O)[O-])c(C(F)(F)F)c2)CC1)N1CCN(C(=O)C2Cc3cc(F)ccc3O2)CC1 (stereo partly drawn) [Compound 80, 1-[4-(5-fluoro-2,3-dihydro-benzofuran-2-carbonyl)-piperazin-1-yl]-2-[4-(4-nitro-3-trifluoromethyl-phenylamino)-cyclohexyloxy]-ethanone]
[1]
  Papp A→B at 20 μM: 12.1 ×10⁻⁶ cm/s
Haemonchus contortus
  inhibition at 5 µg/mL: ≥ 90%

## N#Cc1ccc(N[C@H]2CC[C@H](OCC(=O)N3CCN(CC4Cc5cc(Cl)ccc5O4)CC3)CC2)cc1C(F)(F)F (stereo partly drawn) [Compound 82]
[1]
  Papp A→B at 20 μM: 7.1 ×10⁻⁶ cm/s
Haemonchus contortus
  inhibition at 5 µg/mL: ≥ 90%

## O=C(CO[C@H]1CC[C@H](Nc2ccc([N+](=O)[O-])c(C(F)(F)F)c2)CC1)N1CCN(C(=O)c2cc3cc(C(F)(F)F)ccc3o2)CC1 [Compound 183, 2-[(4-[[4-nitro-3-(trifluoromethyl)phenyl]amino]cyclohexan-1-e)oxy]-1-(4-[[5-(trifluoromethyl)-1-benzofuran-2-yl]carbonyl]piperazin-1-yl)ethan-1-one]
[2]; [3]
  EC50: < 1 µg/mL
Cooperia oncophora
  inhibition at 5 µg/mL: ≥ 90%
Haemonchus contortus
  inhibition at 5 µg/mL: ≥ 90%

## O=C(NCCO[C@H]1CC[C@H](Nc2ccc([N+](=O)[O-])c(C(F)(F)F)c2)CC1)C(=O)NCc1cc2cc(F)ccc2o1 [Compound 221, N^1-((5-fluorobenzofuran-2-yl)methyl)-N^2-(2-(4-(4-nitro-3-(trifluoromethyl)phenylamino)cyclohexyloxy)ethyl)oxalamide]
[2]; [3]
  EC50: < 1 µg/mL
[1]
  Papp A→B at 20 μM: 7.5 ×10⁻⁶ cm/s

## O=C(CO[C@H]1CC[C@H](Nc2ccc([N+](=O)[O-])c(C(F)(F)F)c2)CC1)N1CCN(c2nc3cc(F)ccc3s2)CC1 [Compound 237, 1-[4-(5-fluoro-1,3-benzothiazol-2-yl)piperazin-1-yl]-2-[[4-[[4-nitro-3-(trifluoromethyl)pheny-1]amino]cyclohexyl]oxy]ethan-1-one]
[2]; [3]
  EC50: < 0.1 µg/mL
Cooperia oncophora
  inhibition at 5 µg/mL: ≥ 90%
Haemonchus contortus
  inhibition at 5 µg/mL: ≥ 90%

## CN(c1ccc([N+](=O)[O-])c(C(F)(F)F)c1)[C@H]1CC[C@H](OCC(=O)N2CCN(c3ccc4cc(Cl)ccc4n3)CC2)CC1 [Compound 246, 1-[4-(6-chloroquinolin-2-yl)piperazin-1-yl]-2-[[4-[methyl[4-nitro-3-(trifluoromethyl)phenyl]amino]cyclohexyl]oxy]ethan-1-one]
[2]
  EC50: < 1 µg/mL
Cooperia oncophora
  inhibition at 5 µg/mL: ≥ 90%
Haemonchus contortus
  inhibition at 5 µg/mL: ≥ 90%

## O=C(COC1CCC(Nc2ccc([N+](=O)[O-])c(C(F)(F)F)c2)CC1)N1CCN(c2ccc3cc(Br)ccc3n2)CC1 (stereo not drawn) [Compound 266, 2-[[4-[(4-nitro-3-trifluoromethyl-phenyl)amino]cyclohexyl]oxy]-1-[4-(6-bromoquinolin-2-yl)piperazin-1-yl]ethan-1-one]
[2]; [3]
  EC50: < 0.1 µg/mL
Cooperia oncophora
  inhibition at 5 µg/mL: ≥ 90%
Haemonchus contortus
  inhibition at 5 µg/mL: ≥ 90%

## CN(c1ccc([N+](=O)[O-])c(C(F)(F)F)c1)[C@H]1CC[C@H](OCC(=O)N2CCN(c3ccc4cc(Br)ccc4n3)CC2)CC1 [Compound 269, 2-[(4-[methyl-[4-nitro-3-(trifluoromethyl)phenyl]amino]cyclohexyl)-oxy]1-[4-(6-bromoquinolin-2-yl)piperazin-1-yl]ethan-1-one]
[2]; [3]
  EC50: < 5 µg/mL
Cooperia oncophora
  inhibition at 5 µg/mL: ≥ 90%
Haemonchus contortus
  inhibition at 5 µg/mL: ≥ 90%

## Cc1cc(N2CCN(C(=O)CO[C@H]3CC[C@H](Nc4ccc([N+](=O)[O-])c(C(F)(F)F)c4)CC3)CC2)nc2ccc(Cl)cc12 [Compound 270, 1-[4-(6-chloro-4-methyl-2-quinolyl)piperazin-1-yl]-2-[4-[4-nitro-3-(trifluoromethyl)anilino]cyclohexoxy]ethanone]
[2]; [3]
  EC50: < 1 µg/mL
Cooperia oncophora
  inhibition at 5 µg/mL: ≥ 90%
Haemonchus contortus
  inhibition at 5 µg/mL: ≥ 90%

## N#Cc1ccc(N[C@H]2CC[C@H](OCC(=O)N3CCN(c4ccc5cc(Br)ccc5n4)CC3)CC2)cc1C(F)(F)F [Compound 271, 2-[(4-[[4-cyano-3-(trifluoromethyl)phenyl]amino]cyclohexyl)oxy]-1-[4-(6-bromoquinolin-2-yl)piperazin-1-yl]ethan-1-one]
[2]; [3]
  EC50: < 1 µg/mL
Cooperia oncophora
  inhibition at 5 µg/mL: ≥ 90%
Haemonchus contortus
  inhibition at 5 µg/mL: ≥ 90%

## O=C(CO[C@H]1CC[C@H](Nc2ccc([N+](=O)[O-])c(C(F)(F)F)c2)CC1)N1CCN(Cc2nc3cc(F)ccc3o2)CC1 [Compound 285, 2-[(4-[[4-nitro-3-(trifluoromethyl)phenyl]amino]cyclohexyl)-oxy]1-[4-(5-fluorobenzoxazol-2-ylmethyl)piperazin-1-yl]ethan-1-one]
[1]
  Papp A→B at 20 μM: 12 ×10⁻⁶ cm/s
Haemonchus contortus
  inhibition at 5 µg/mL: ≥ 90%

## N#Cc1ccc(N[C@H]2CC[C@H](OCC(=O)N3CCN(c4ccc5cc(F)ccc5c4F)CC3)CC2)cc1C(F)(F)F [Compound 290, 4-(4-{2-[4-(1,6-difluoro-naphthalen-2-yl)-piperazin-1-yl]-2-oxo-ethoxy}-cyclohexylamino)-2-trifluoromethyl-benzonitrile]
[2]; [3]
  EC50: < 1 µg/mL
Cooperia oncophora
  inhibition at 5 µg/mL: ≥ 90%
Haemonchus contortus
  inhibition at 5 µg/mL: ≥ 90%

## CC(c1ccc2cc(F)ccc2c1)N1CCN(C(=O)CO[C@H]2CC[C@H](Nc3ccc([N+](=O)[O-])c(C(F)(F)F)c3)CC2)CC1 (stereo partly drawn) [Compound 298, 2-[(4-[[4-nitro-3-(trifluoromethyl)phenyl]amino]cyclohexyl)-oxy]1-[4-[1-(6-fluoronaphthalen-2-yl)ethyl]piperazin-1-yl]ethan-1-one]
[2]; [3]
  EC50: < 1 µg/mL
Cooperia oncophora
  inhibition at 5 µg/mL: ≥ 90%
Haemonchus contortus
  inhibition at 5 µg/mL: ≥ 90%

## CC(c1cc2cc(Cl)ccc2o1)N1CCN(C(=O)CO[C@H]2CC[C@H](Nc3ccc([N+](=O)[O-])c(C(F)(F)F)c3)CC2)CC1 (stereo partly drawn) [Compound 300]
[2]; [3]
  EC50: < 0.1 µg/mL
Cooperia oncophora
  inhibition at 5 µg/mL: ≥ 90%
Haemonchus contortus
  inhibition at 5 µg/mL: ≥ 90%

## C[C@@H]1CN(CC2Cc3cc(F)ccc3O2)[C@@H](C)CN1C(=O)CO[C@H]1CC[C@H](Nc2ccc([N+](=O)[O-])c(C(F)(F)F)c2)CC1 (stereo partly drawn) [Compound 307, 1-[(2R,5S)-4-(5-fluoro-2,3-dihydro-benzofuran-2-ylmethyl)-2,5-dimethyl-piperazin-1-yl]-2-[4-(4-nitro-3-trifluoromethyl-phenylamino)-cyclohexyloxy]-ethanone]
[2]; [3]
  EC50: < 0.1 µg/mL
Cooperia oncophora
  inhibition at 5 µg/mL: ≥ 90%
Haemonchus contortus
  inhibition at 5 µg/mL: ≥ 90%

## O=C(CO[C@H]1CC[C@H](Nc2ccc([N+](=O)[O-])c(C(F)(F)F)c2)CC1)N1CCN(CC2Cc3cc(-c4ccc(F)cc4)ccc3O2)CC1 (stereo partly drawn) [Compound 310, 1-{4-[5-(4-fluoro-phenyl)-2,3-dihydro-benzofuran-2-ylmethyl]-piperazin-1-yl}-2-[4-(4-nitro-3-trifluoromethyl-phenylamino)-cyclohexyloxy]-ethanone]
[2]; [3]
  EC50: < 0.1 µg/mL
Cooperia oncophora
  inhibition at 5 µg/mL: ≥ 90%
Haemonchus contortus
  inhibition at 5 µg/mL: ≥ 90%

## O=C(CO[C@H]1CC[C@H](Nc2ccc([N+](=O)[O-])c(C(F)(F)F)c2)CC1)N1CCN(Cc2cc3ccc(Cl)cc3o2)CC1 [Compound 322, 2-[(4-[[4-nitro-3-(trifluoromethyl)phenyl]amino]cyclohexyl)-oxy]1-[4-(6-chlorobenzofuran-2-ylmethyl)piperazin-1-yl]ethan-1-one]
[1]
  Papp A→B at 20 μM: 7.9 ×10⁻⁶ cm/s
Haemonchus contortus
  inhibition at 5 µg/mL: ≥ 90%

## COc1ccc2oc(CN3CCN(C(=O)CO[C@H]4CC[C@H](Nc5ccc([N+](=O)[O-])c(C(F)(F)F)c5)CC4)CC3)cc2c1 [Compound 323, 2-[(4-[[4-nitro-3-(trifluoromethyl)phenyl]amino]cyclohexyl)-oxy]1-[4-(5-methoxybenzofuran-2-ylmethyl)piperazin-1-yl]ethan-1-one]
[1]
  Papp A→B at 20 μM: 11.9 ×10⁻⁶ cm/s
Haemonchus contortus
  inhibition at 5 µg/mL: ≥ 90%

## O=C(CO[C@H]1CC[C@H](Nc2ccc([N+](=O)[O-])c(C(F)(F)F)c2)CC1)N1CCN(Cc2ccc3c(C(F)(F)F)cccc3n2)CC1 [Compound 329, 2-[4-(4-nitro-3-trifluoromethyl-phenylamino)-cyclohexyloxy]-1-[4-(5-trifluoromethyl-quinolin-2-ylmethyl)-piperazin-1-yl]-ethanone]
[1]
  Papp A→B at 20 μM: 5.6 ×10⁻⁶ cm/s
Haemonchus contortus
  inhibition at 5 µg/mL: ≥ 90%

## O=C(CO[C@H]1CC[C@H](Nc2ccc([N+](=O)[O-])c(C(F)(F)F)c2)CC1)N1CCN(Cc2ccc3cc(C(F)(F)F)ccc3n2)CC1 [Compound 332, 2-[4-(4-nitro-3-trifluoromethyl-phenylamino)-cyclohexyloxy]-1-[4-(6-trifluoromethyl-quinolin-2-ylmethyl)-piperazin-1-yl]-ethanone]
[1]
  Papp A→B at 20 μM: 6.5 ×10⁻⁶ cm/s
Haemonchus contortus
  inhibition at 5 µg/mL: ≥ 90%

## N#Cc1ccc(N[C@H]2CC[C@H](OCC(=O)N3CCN(Cc4ccc5ccc(C(F)(F)F)cc5n4)CC3)CC2)cc1C(F)(F)F [Compound 333, 4-(4-{2-oxo-2-[4-(7-trifluoromethyl-quinolin-2-ylmethyl)-piperazin-1-yl]-ethoxy}-cyclohexylamino)-2-trifluoromethyl-benzonitrile]
[1]
  Papp A→B at 20 μM: 8.1 ×10⁻⁶ cm/s
Haemonchus contortus
  inhibition at 5 µg/mL: ≥ 90%

## N#Cc1ccc(N[C@H]2CC[C@H](OCC(=O)N3CCN(Cc4ccc5cc(C(F)(F)F)ccc5n4)CC3)CC2)cc1C(F)(F)F [Compound 334, 4-(4-{2-oxo-2-[4-(6-trifluoromethyl-quinolin-2-ylmethyl)-piperazin-1-yl]-ethoxy}-cyclohexylamino)-2-trifluoromethyl-benzonitrile]
[1]
  Papp A→B at 20 μM: 11.9 ×10⁻⁶ cm/s
Haemonchus contortus
  inhibition at 5 µg/mL: ≥ 90%

## N#Cc1ccc(N[C@H]2CC[C@H](OCC(=O)N3CCN(c4cnc5ccccc5c4)CC3)CC2)cc1C(F)(F)F [Compound 335, 4-[[4-[2-oxo-2-[4-(3-quinolyl)piperazin-1-yl]ethoxy]cyclohexyl]amino]-2-(trifluoromethyl)benzonitrile]
[1]
  Papp A→B at 20 μM: 15 ×10⁻⁶ cm/s
Haemonchus contortus
  inhibition at 5 µg/mL: ≥ 90%

## O=C(CO[C@H]1CC[C@H](Nc2ccc([N+](=O)[O-])c(C(F)(F)F)c2)CC1)N1CCN(c2cnc3ccccc3c2)CC1 [Compound 336, 2-[4-[4-nitro-3-(trifluoromethyl)anilino]cyclohexoxy]-1-[4-(3-quinolyl)piperazin-1-yl]ethanone]
[1]
  Papp A→B at 20 μM: 7.9 ×10⁻⁶ cm/s
Haemonchus contortus
  inhibition at 5 µg/mL: ≥ 90%
